Reference: article PMC8249445, “Complex effects of macrolide venturicidins on bacterial F-ATPases likely contribute to their action as antibiotic adjuvants” (Scientific Reports, 2021)
Like-named read-outs stand apart in the source and are kept apart here.

What was measured:
E. coli membrane ATPase = settings: read-out: half-maximal inhibitory concentration of venturicidin; obtained from earlier data; more divergent assay conditions; cited from earlier work
P. aeruginosa = system: P. aeruginosa; set-up: method as in PMID 6406266; settings: cited from earlier work
[1] = target: T1, FOF1-ATPase of WT E. coli membranes (Escherichia coli, UniProt P68699); assay: biochemical; type: biochemical; settings: for ATPase activity during the last 3 min of assays: 0.1 mM DCCD alone (trace 1); for Ki: read-out: Ki (early inhibition)
T1 construct: To express haploid levels of EcFOF1 containing WT-ε or ε88-stop; expressed in transfected cells; host or cells: E. coli strain XH1 (chromosomal atpC deletion) carrying pMBε1; inverted membrane vesicles
Procedure: ATP hydrolysis is enzyme-coupled to conversion of NADH to NAD^+, which results in decreased light absorbance; thus, a larger rate of ATP hydrolysis is indicated by a steeper downward slope. The system also rapidly regenerates ATP, minimizing the concentration of product ADP during the assay. Unless noted, assays were preincubated to establish a steady state hydrolysis rate (see “Methods”) before the ‘zero’ point of measurements.
(§1) Plasmid pXH302S, which encodes the WT atpC gene and expresses near haploid levels of the ε subunit, was subjected to fusion PCR mutagenesis to construct plasmid pMBε1, with an N-terminal affinity tag ([…]) added prior to the initial Met residue. To express the ε88-stop subunit, an AfeI-ScaI restriction fragment of WT pMBε1 was replaced by the analogous fragment from pH6ε88-stop[46]. To express haploid levels of EcFOF1 containing WT-ε or ε88-stop, the appropriate version of pMBε1 was transformed into E. coli strain XH1, which has a chromosomal deletion of the atpC gene for ε[54]. For these transformed strains, cultures were grown and inverted membrane vesicles (IMV) were prepared according to [55]. WT ε, with the same N-terminal His6-tag, was over-expressed from pH6ε and purified as described.
ATP hydrolysis by membrane vesicles was assayed spectrophotometrically[57] at 30 °C using an open-chamber, diode array spectrophotometer (Hewlett Packard 8453 UV–Vis) as described in[29]. The assay medium (1 ml per assay) contained 20 mM Mops/Tris, pH 8.0, 0.2 mM EDTA, 10 mM CH3COOK, 1 mM ATP, 3.2 mM Mg(CH3COO)2, 1 mM phosphoenolpyruvate, at least 0.3 mM NADH, 0.1 mg/ml pyruvate kinase, 0.1 mg/ml lactate dehydrogenase, 5 mM KCN, and 5 μM carbonyl cyanide 4-(trifluoromethoxy)-phenylhydrazone. […] To avoid interference of this increase with the changes of ATPase activity induced by venturicidins, unless indicated otherwise, measurement of ATPase activities were started 60 min after addition of membranes to the complete assay medium. […] To keep absorbance between 1.5 and 2 units after the 60-min preincubation, up to 0.2 mM additional NADH was added to the assay medium. In figures displaying activity traces, some traces are shifted vertically for visual clarity.

[2] = target: T2, E. coli membranes with FOF1 lacking the ε subunit's CTD (ε88-stop) (Escherichia coli, UniProt P68699); assay: ATP hydrolysis by ε88-stop E. coli membranes, enzyme-coupled spectrophotometric assay; type: biochemical
T2 construct: To express haploid levels of EcFOF1 containing WT-ε or ε88-stop; expressed in transfected cells; host or cells: E. coli strain XH1 (chromosomal atpC deletion) carrying the ε88-stop version of pMBε1; inverted membrane vesicles
Description: We next investigated whether the ε-inhibited state of EcFOF1 also impacts interactions of ventA with the enzyme. The N-terminal domain (NTD) of ε is required for FOF1 assembly and functional coupling of F1 to FO in eukaryotic and bacterial species; the C-terminal domain (CTD) of ε can auto-inhibit FOF1 and isolated F1 from some bacteria and from chloroplasts, but the mitochondrial homolog (δ) is not inhibitory[39],[40]. Thus we measured the effects of ventA on ATPase activity of E. coli membranes expressing ε88-stop, which lacks the autoinhibitory εCTD (Fig. 3). From Table 1 (100% ATPase values), it is clear that selenite activates membrane ATPase more (fourfold) for ε88-stop than for WT (2.8-fold). This is because, without the inhibitory εCTD, more enzyme complexes shift to the MgADP-inhibited state, which can be activated by selenite. […] In contrast, early inhibition of ATPase by ventA has similar Ki values for WT and ε88-stop membranes in the absence (0.7 vs 0.5 μM) or in the presence of selenite (0.23 vs 0.09 μM).
as §1
(§2) ATP hydrolysis by membrane vesicles was assayed spectrophotometrically[57] at 30 °C using an open-chamber, diode array spectrophotometer (Hewlett Packard 8453 UV–Vis) as described in[29]. The assay medium (1 ml per assay) contained 20 mM Mops/Tris, pH 8.0, 0.2 mM EDTA, 10 mM CH3COOK, 1 mM ATP, 3.2 mM Mg(CH3COO)2, 1 mM phosphoenolpyruvate, at least 0.3 mM NADH, 0.1 mg/ml pyruvate kinase, 0.1 mg/ml lactate dehydrogenase, 5 mM KCN, and 5 μM carbonyl cyanide 4-(trifluoromethoxy)-phenylhydrazone. As noted before, the rate of ATP hydrolysis by membranes increases to a small degree during assays. This is due, at least in part, to dissociation of a small fraction of EcF1 and/or ε from the membranes, since the increase is inhibited by added ε (e.g., Fig. 5). To avoid interference of this increase with the changes of ATPase activity induced by venturicidins, unless indicated otherwise, measurement of ATPase activities were started 60 min after addition of membranes to the complete assay medium. This minimizes further increases in ATPase rate during control assays to < 15%. To keep absorbance between 1.5 and 2 units after the 60-min preincubation, up to 0.2 mM additional NADH was added to the assay medium. In figures displaying activity traces, some traces are shifted vertically for visual clarity.

[3] = target: T3, PaFOF1 in membranes from P. aeruginosa strain PAO1 (Pseudomonas aeruginosa, UniProt Q9HT15); assay: ATP hydrolysis by P. aeruginosa PAO1 membranes, enzyme-coupled spectrophotometric assay; type: biochemical
T3 construct: endogenous in cells; host or cells: P. aeruginosa strain PAO1, inverted membrane vesicles
Procedure: P. aeruginosa strain PAO1 was grown in LB medium at 37 °C as described. For preparation of IMV, final cultures used 1 L of LB per 2L baffled flask and were inoculated from an overnight culture at an initial OD600 ~ 0.025. Cultures were shaken at 250 rpm and monitored until they reached mid- to late-logarithmic growth phase (OD600, 1–1.4). Cultures were chilled and subsequent steps for cell lysis and isolation of IMV were done at 4 °C. Cells were sedimented by centrifugation (3,700 × g, 30 min). Cells from 1 to 2 L of culture (~ 2–3 g wet cells/L) were resuspended in 25–40 ml of STEM buffer (TEM buffer plus sucrose[55]), transferred to a 50 ml Oak Ridge tube, sedimented again (11,617 × g, 10 min), resuspended in 20–40 ml of STEM and frozen at -80 °C. Thawed cells were lysed by two sequential passages through an SLM-Aminco French pressure cell at ~ 16,000 psi, essentially as described for E. coli[55]; the pressure cell was enclosed in a clear biohazard bag (MiniGrip, IP2024B3T) during use to contain any aerosols formed. Unlysed cells and cell wall debris were removed by centrifugation (50 ml Oak Ridge tubes, 16,743 × g, 25 min): the supernate was diluted with MTGM7.5 buffer (50 mM MOPS-TRIS, 10%(v/v) glycerol, 5 mM Mg(CH3COO)2, pH 7.5) and centrifugation was repeated at least twice, recovering the supernate each time. The final supernatant lysate was stored at -80 °C. To isolate IMV, the cleared lysate was thawed quickly and diluted with MTGM7.5 as needed to fill 1 or 2 polycarbonate tubes for use in a Beckman Ti70 rotor. The IMV (membranes) were sedimented by ultracentrifugation (250,000 × g max) for 1 h, the membranes were resuspended in MTGM7.5 buffer to fill one Ti70 tube and ultracentrifugation was repeated for 45 min. The membranes were resuspended in a small volume of MTGM7.5 buffer (typically ≥ 10 mg membrane protein/ml) and homogenized manually (Potter–Elvehjem type). Small aliquots of the final membrane sample were quick-frozen in liquid nitrogen and stored at − 80 °C.
as §2

mitoFOF1 = system: mitoFOF1; set-up: method as in PMID 124668; settings: cited from earlier work
[4] = system: FOF1 from M. smegmatis (MsFOF1); set-up: method as in PMID 33299175; settings: cited from earlier work
F1 = target: F1; set-up: method as in PMID 23400782; settings: read-out: KD of ε dissociation from F1; cited from earlier work
S. aureus = system: S. aureus; set-up: method as in PMID 28874470; settings: cited from earlier work
[5] = WT, 38.5 mM selenite (Fig. S1 panel B)

venturicidin
IC50 (E. coli membrane ATPase): ~7 µM
Decrease of cellular ATP (P. aeruginosa; anaerobic fermentation of L-arginine): ~ tenfold
Time to eliminate Δψ and flagellar motility (P. aeruginosa; anaerobic): ≤ 3.5 min
Reduction of cellular ATP (P. aeruginosa; during respiration): ~ fivefold

O=[Se](O)O [selenite]
100% ATPase (specific activity just before addition of ventA) ([1]; WT + 38.5 mM selenite): 2.3 (± 0.2) U/mg
Stimulation of ATPase activity ([1]; optimal selenite (38.5 mM), WT membranes): 2.8 fold
Activation of membrane ATPase ([2]; selenite, ε88-stop membranes): fourfold
100% ATPase (specific activity just before addition of ventA) ([2]; ε88stop + 38.5 mM selenite): 3.4 (± 0.5) U/mg
Activation of membrane ATPase ([3]; selenite): ~ fourfold

CC[C@H]1/C=C/C=C/C[C@@H](C)[C@H](O)[C@@](C)(O)C(=O)[C@@H](C)[C@H](O)[C@@H](C)C(=O)[C@@H](C)[C@H](O)[C@@H](C)/C=C/C(=O)O[C@@H]2[C@H](C)[C@H](CC1)O[C@]1(CC[C@H](C)[C@H](C[C@@H](C)O)O1)[C@H]2C [oligomycin]
Effect on ATPase activity of membrane and detergent-solubilized mitoFOF1 (mitoFOF1): inhibited ATPase activity of both forms

[N-]=[N+]=[N-] [azide]
Inhibition of ATPase activity ([1]; 6 µM azide in the assay): ~ 50%
100% ATPase (specific activity just before addition of ventA) ([1]; WT + 6 μM azide): 0.42 (± 0.02) U/mg
Inhibition of ATPase activity ([3]; excess azide): 80–90%

COc1nc2ccc(Br)cc2cc1[C@@H](c1ccccc1)[C@@](O)(CCN(C)C)c1cccc2ccccc12 [BDQ, bedaquiline]
Effect of micromolar BDQ on ATPase activity ([4]; micromolar BDQ): most activity was restored
Inhibition of ATPase ([4]; nanomolar BDQ): ~ 80%

C(=NC1CCCCC1)=NC1CCCCC1 [DCCD, N,N′-dicyclohexylcarbodiimide]
ATPase activity during the last 3 min of assays ([1]; 38.5 mM selenite): 0.85 U/mg
ATPase activity during the last 3 min of assays ([1]; no selenite): 0.20 (± 0.02) U/mg
inhibition at 100 µM ([1]; read-out: Inhibition of ATPase activity): 73%

ε: purified WT ε subunit of E. coli FOF1 with N-terminal His6-tag, added exogenously
Late rate (last 3 min of assay) ([1]; 67 nM ε added after 9.5 μM ventA, 38.5 mM selenite (Fig. 5A #4)): 0.28 U/mg
Late rate (last 3 min of assay) ([1]; 67 nM ε, 38.5 mM selenite (Fig. 5A #2)): 1.4 U/mg
Immediate inhibition of ATPase activity ([1]; excess ε (67 nM), without ventA, selenite present): ~ 30%
Immediate inhibition of ventA-recovered ATPase activity ([1]; excess ε added after 9.5 μM ventA, selenite present (Fig. 5A trace 4)): ~ 90%
Kd (F1): < 0.001 µM

Oligomycin A
Adjuvant activity for polymyxin B (S. aureus): potent adjuvant

CCC(=O)C(C)C(O)C(C)CC(C)C1OC(=O)CC2(O)CC=C(C)C(O2)C(C)=CCCCC(OC2CC(O)C(O)C(C)O2)C=CC(C)CC1C (stereo not shown) [ventB, venturicidin B]
Reduction of Ki by selenite ([1]; WT): 2.3 fold
y0 (ATPase at saturating venturicidin) [1, 5]: 28% (±7)
y1 (venturicidin-sensitive ATPase, best fit of early rates) [1, 5]: 73% (±6)
y1 (venturicidin-sensitive ATPase, best fit of early rates) ([1]; WT, absence of selenite (Fig. S1 panel A), y0 fixed as 0): 136% (±7)
Ki for inhibition of early rate relative to respective Ki of ventA ([1]; WT, with or without selenite): ≥ tenfold
Ki [1, 5]: 4 µM
Ki ([1]; WT, absence of selenite (Fig. S1 panel A)): 9 µM
